Measurements as given in patent US20210395256A1, “TYROSINE KINASE INHIBITORS, COMPOSITIONS AND METHODS THERE OF” (Betta Pharmaceuticals Co., Ltd., priority 2018, published 2021).
Counter-ions that a name gives are not always drawn.

biological target: TrkA kinase (Homo sapiens, UniProt P04629); assay: TrkA kinase assay (mobility shift assay); format: biochemical; details: class symbols; read-out: Trk A Kinase IC50
Method: Example 201 TrkA Kinase Assay
Mobility shift assay was used to determine the inhibitory activity of compounds against TrkA kinase. Assay procedures are as follows:
1× Kinase base buffer (50 mM HEPES, pH 7.5; 0.0015% Brij-35)
Stop buffer (100 mM HEPES, pH 7.5; 0.015% Brij-35; 0.2% Coating Reagent #3; 50 mM EDTA)
1) Dilute the compound to 50× of the final desired highest inhibitor concentration in reaction by 100% DMSO. Transfer 100 μl of this compound dilution to a well in a 96-well plate.
2) For all compounds, transfer the compound in tubes to one well on 96-well storage plate and serially dilute the compound by transferring 30 μl to 60 μl of 100% DMSO in the next well and so forth for a total of 10 concentrations.
3) Add 100 μl of 100% DMSO to two empty wells for no compound control and no enzyme control in the same 96-well plate. Mark the plate as source plate.
4) Prepare intermediate plate
Transfer 10 μl of compound from source plate to a new 96-well plate as the intermediate plate
Add 90 µl of 1× kinase buffer to each well of the intermediate plate.
Mix the compounds in intermediate plate for 10 min on shaker.
1) Transfer 5 μl of each well from the 96-well intermediate plate to a 384-well plate in duplicates. For example, A1 of the 96-well plate is transferred to A1 and A2 of the 384-well plate. A2 of the 96-well plate is transferred to A3 and A4 of the 384-well plate, and so on.
1) Prepare 2.5× enzyme solution
Add kinase in 1× kinase base buffer.
2) Prepare 2.5× peptide solution Add FAM-labeled peptide and ATP in the 1× kinase base buffer.
3) Assay plate already contains 5 μl of compound in 10% DMSO.
4) Transfer 2.5× enzyme solution to the assay plate
Add 10 μl of 2.5× enzyme solution to each well of the 384-well assay plate.
5) Incubate at room temperature for 10 min.
6) Transfer 2.5× peptide solution to the assay plate
Add 10 μl of 2.5× peptide solution to each well of the 384-well assay plate.
Kinase reaction conditions are shown as Table 11:
7) Kinase reaction and stop
Incubate at 28° C. for specified period of time.
Add 25 μl of stop buffer to stop reaction.
1) Copy conversion data from Caliper program.
2) Convert conversion values to inhibition values.
Percent inhibition=(max-conversion)/(max-min)*100.
“max” stands for DMSO control; “min” stands for low control.
3) Fit the data in XLFit excel add-in version 5.4.0.8 to obtain IC50 values.
Equation used is: Y=Bottom+(Top-Bottom)/(1+(IC50/X)^HillSlope)

Sequence of TrkA kinase (P04629 33-796): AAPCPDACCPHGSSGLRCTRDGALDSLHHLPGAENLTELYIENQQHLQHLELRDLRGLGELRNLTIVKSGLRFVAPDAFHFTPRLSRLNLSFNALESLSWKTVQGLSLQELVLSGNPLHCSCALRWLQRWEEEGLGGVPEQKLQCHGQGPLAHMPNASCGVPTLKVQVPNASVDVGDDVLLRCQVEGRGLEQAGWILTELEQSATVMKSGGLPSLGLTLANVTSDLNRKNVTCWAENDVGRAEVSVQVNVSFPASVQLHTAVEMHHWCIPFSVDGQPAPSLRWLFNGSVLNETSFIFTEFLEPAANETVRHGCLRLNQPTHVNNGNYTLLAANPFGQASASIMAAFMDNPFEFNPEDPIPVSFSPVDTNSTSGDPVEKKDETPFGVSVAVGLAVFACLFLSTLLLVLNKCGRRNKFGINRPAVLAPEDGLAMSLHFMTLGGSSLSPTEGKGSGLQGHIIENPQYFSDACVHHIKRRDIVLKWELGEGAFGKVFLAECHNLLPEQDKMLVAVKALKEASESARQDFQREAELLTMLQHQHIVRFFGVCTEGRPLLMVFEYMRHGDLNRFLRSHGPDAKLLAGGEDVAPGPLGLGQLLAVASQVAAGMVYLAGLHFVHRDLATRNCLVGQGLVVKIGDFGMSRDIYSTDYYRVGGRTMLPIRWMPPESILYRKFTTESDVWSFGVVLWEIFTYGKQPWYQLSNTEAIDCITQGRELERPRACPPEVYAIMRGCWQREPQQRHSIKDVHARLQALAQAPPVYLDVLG

**Q.** Which IC50 does the source give for C#CC(O)c1nnc(-c2cnn3ccc(N4CCC[C@@H]4c4cc(F)ccc4F)nc23)[nH]1 (stereo partly drawn) [Compound 48, 1-(5-(5-((R)-2-(2,5-difluorophenyl)pyrrolidin-1-yl)pyrazolo[1,5-a]pyrimidin-3-yl)-4H-1,2,4-triazol-3-yl)prop-2-yn-1-ol] here?
**A.** The IC50 was at most 10 nM.

**Q.** For CC(C)[C@H](N)C(=O)N[C@H](C(=O)O[C@@H](C)c1nnc(-c2cnn3ccc(N4CCC[C@@H]4c4cc(F)ccc4F)nc23)[nH]1)C(C)C [Compound 55, (S)-1-(5-(5-((R)-2-(2,5-difluorophenyl)pyrrolidin-1-yl)pyrazolo[1,5-a]pyrimidin-3-yl)-4H-1,2,4-triazol-3-yl)ethyl L-valylvalinate hydrochloride], which IC50 is on record?
**A.** The IC50 was 10 to 50 nM.

**Q.** Fc1ccc(F)c([C@H]2CCCN2c2ccn3ncc(-c4nnc(-c5ccc(Oc6ccccc6)cc5)[nH]4)c3n2)c1 [Compound 58, (R)-5-(2-(2,5-difluorophenyl)pyrrolidin-1-yl)-3-(5-(4-phenoxyphenyl)-4H-1,2,4-triazol-3-yl)pyrazolo[1,5-a]pyrimidine] was tested. Which IC50 did it give?
**A.** The IC50 was over 50 nM.

**Q.** Which IC50 does the source give for Fc1ccc(F)c([C@H]2CCCN2c2ccn3ncc(-c4nnc(-c5ccc6cn[nH]c6c5)[nH]4)c3n2)c1 [Compound 59, (R)-3-(5-(1H-indazol-6-yl)-4H-1,2,4-triazol-3-yl)-5-(2-(2,5-difluorophenyl)pyrrolidin-1-yl)pyrazolo[1,5-a]pyrimidine] here?
**A.** The IC50 was at most 10 nM.

**Q.** Which IC50 does the source give for O[C@@H]1C[C@](O)(c2nnc(-c3cnn4ccc(N5CCC[C@@H]5c5cc(F)ccc5F)nc34)[nH]2)C[C@@H](O)[C@H]1O [Compound 60, (1R,2S,3R,5S)-5-(5-(5-((R)-2-(2,5-difluorophenyl)pyrrolidin-1-yl)pyrazolo[1,5-a]pyrimidin-3-yl)-4H-1,2,4-triazol-3-yl)cyclohexane-1,2,3,5-tetraol] here?
**A.** Its IC50 is 10 to 50 nM.

**Q.** Fc1ccc(F)c([C@H]2CCCN2c2ccn3ncc(-c4nnc(-c5ccc6c(c5)OCC6)[nH]4)c3n2)c1 [Compound 61, (R)-5-(2-(2,5-difluorophenyl)pyrrolidin-1-yl)-3-(5-(2,3-dihydrobenzofuran-6-yl)-4H-1,2,4-triazol-3-yl)pyrazolo[1,5-a]pyrimidine] was tested. Which IC50 did it give?
**A.** Its IC50 is at most 10 nM.

**Q.** With Fc1ccc(F)c([C@H]2CCCN2c2ccn3ncc(-c4nc5ccc(N6CCN7CCC[C@@H]7C6)cc5[nH]4)c3n2)c1 [Compound 62, 5-((R)-2-(2,5-difluorophenyl)pyrrolidin-1-yl)-3-(6-((R)-hexahydropyrrolo[1,2-a]pyrazin-2(1H)-yl)-1H-benzo[d]imidazol-2-yl)pyrazolo[1,5-a]pyrimidine] as the molecule, how does the IC50 read?
**A.** The IC50 was over 50 nM.

**Q.** For Fc1ccc(F)c([C@H]2CCCN2c2ccn3ncc(-c4nc5ccc(N6CCN7CCC[C@@H]7C6)cc5s4)c3n2)c1 [Compound 63, 2-(5-((R)-2-(2,5-difluorophenyl)pyrrolidin-1-yl)pyrazolo[1,5-a]pyrimidin-3-yl)-6-((R)-hexahydropyrrolo[1,2-a]pyrazin-2(1H)-yl)benzo[d]thiazole], which IC50 is on record?
**A.** Its IC50 is over 50 nM.

**Q.** Which IC50 does the source give for Fc1ccc(F)c([C@H]2CCCN2c2ccn3ncc(-c4nc5cnc(N6CCOCC6)cc5[nH]4)c3n2)c1 [Compound 64, (R)-4-(2-(5-(2-(2,5-difluorophenyl)pyrrolidin-1-yl)pyrazolo[1,5-a]pyrimidin-3-yl)-1H-imidazo[4,5-c]pyridin-6-yl)morpholine] here?
**A.** The IC50 was over 50 nM.

**Q.** For COc1cc2nc(-c3cnn4ccc(N5CCC[C@@H]5c5cc(F)ccc5F)nc34)[nH]c2cc1C(C)O (stereo partly drawn) [Compound 66, 1-(2-(5-((R)-2-(2,5-difluorophenyl)pyrrolidin-1-yl)pyrazolo[1,5-a]pyrimidin-3-yl)-5-methoxy-1H-benzo[d]imidazol-6-yl)ethan-1-ol], which IC50 is on record?
**A.** The IC50 was at most 10 nM.

**Q.** Which IC50 does the source give for CC(O)c1ccc2nc(-c3cnn4ccc(N5CCC[C@@H]5c5cc(F)ccc5F)nc34)oc2c1 (stereo partly drawn) [Compound 68, 1-(2-(5-((R)-2-(2,5-difluorophenyl)pyrrolidin-1-yl)pyrazolo[1,5-a]pyrimidin-3-yl)benzo[d]oxazol-6-yl)ethan-1-ol] here?
**A.** The IC50 was at most 10 nM.

**Q.** With OCc1ccc2nc(-c3cnn4ccc(N5CCC[C@@H]5c5cc(F)ccc5F)nc34)oc2c1 [Compound 69, (R)-(2-(5-(2-(2,5-difluorophenyl)pyrrolidin-1-yl)pyrazolo[1,5-a]pyrimidin-3-yl)benzo[d]oxazol-6-yl)methanol] as the molecule, how does the IC50 read?
**A.** The IC50 was at most 10 nM.

same assay, conditions: numeric values; read-out: Trk A Kinase IC50

**Q.** Fc1ccc(F)c([C@H]2CCCN2c2ccn3ncc(-c4nnc(C5COCCN5)[nH]4)c3n2)c1 (stereo partly drawn) [Compound 49, 3-(5-(5-((R)-2-(2,5-difluorophenyl)pyrrolidin-1-yl)pyrazolo[1,5-a]pyrimidin-3-yl)-4H-1,2,4-triazol-3-yl)morpholine] was tested. Which IC50 did it give?
**A.** The IC50 was 6.4 nM.

**Q.** Fc1ccc(F)c([C@H]2CCCN2c2ccn3ncc(-c4nnc(-c5ccc6[nH]ccc6c5)[nH]4)c3n2)c1 [Compound 50, (R)-3-(5-(1H-indol-5-yl)-4H-1,2,4-triazol-3-yl)-5-(2-(2,5-difluorophenyl)pyrrolidin-1-yl)pyrazolo[1,5-a]pyrimidine] was tested. Which IC50 did it give?
**A.** The IC50 was 2.65 nM.

**Q.** For CC(C)C[C@H](N)C(=O)O[C@@H](C)c1nnc(-c2cnn3ccc(N4CCC[C@@H]4c4cc(F)ccc4F)nc23)[nH]1 [Compound 51, (S)-1-(5-(5-((R)-2-(2,5-difluorophenyl)pyrrolidin-1-yl)pyrazolo[1,5-a]pyrimidin-3-yl)-4H-1,2,4-triazol-3-yl)ethyl L-leucinate hydrochloride], which IC50 is on record?
**A.** Its IC50 is 3 nM.

**Q.** OCC(F)c1nnc(-c2cnn3ccc(N4CCC[C@@H]4c4cc(F)ccc4F)nc23)[nH]1 (stereo partly drawn) [Compound 52, 2-(5-(5-((R)-2-(2,5-difluorophenyl)pyrrolidin-1-yl)pyrazolo[1,5-a]pyrimidin-3-yl)-4H-1,2,4-triazol-3-yl)-2-fluoroethan-1-ol] was tested. Which IC50 did it give?
**A.** The IC50 was 1.66 nM.

**Q.** With OC1(c2nnc(-c3cnn4ccc(N5CCC[C@@H]5c5cc(F)ccc5F)nc34)[nH]2)CC1 [Compound 53, (R)-1-(5-(5-(2-(2,5-difluorophenyl)pyrrolidin-1-yl)pyrazolo[1,5-a]pyrimidin-3-yl)-4H-1,2,4-triazol-3-yl)cyclopropan-1-ol] as the molecule, how does the IC50 read?
**A.** The IC50 was 1.4 nM.

**Q.** With CN1CCN(c2ccc(-c3nnc(-c4cnn5ccc(N6CCC[C@@H]6c6cc(F)ccc6F)nc45)[nH]3)cn2)CC1 [Compound 54, (R)-5-(2-(2,5-difluorophenyl)pyrrolidin-1-yl)-3-(5-(6-(4-methylpiperazin-1-yl)pyridin-3-yl)-4H-1,2,4-triazol-3-yl)pyrazolo[1,5-a]pyrimidine] as the molecule, how does the IC50 read?
**A.** The IC50 was 1.17 nM.

**Q.** For Fc1ccc(F)c([C@H]2CCCN2c2ccn3ncc(-c4nnc(-c5ccc6ncccc6c5)[nH]4)c3n2)c1 [Compound 56, (R)-6-(5-(5-(2-(2,5-difluorophenyl)pyrrolidin-1-yl)pyrazolo[1,5-a]pyrimidin-3-yl)-4H-1,2,4-triazol-3-yl)quinoline], which IC50 is on record?
**A.** The IC50 was 1.2 nM.

**Q.** Which IC50 does the source give for Fc1ccc(F)c([C@H]2CCCN2c2ccn3ncc(-c4nnc(-c5ccc6nc[nH]c6c5)[nH]4)c3n2)c1 [Compound 57, (R)-3-(5-(1H-benzo[d]imidazol-6-yl)-4H-1,2,4-triazol-3-yl)-5-(2-(2,5-difluorophenyl)pyrrolidin-1-yl)pyrazolo[1,5-a]pyrimidine] here?
**A.** The IC50 was 0.6 nM.

**Q.** With COc1cc2nc(-c3cnn4ccc(N5CCC[C@@H]5c5cc(F)ccc5F)nc34)[nH]c2cc1CO [Compound 67, (R)-(2-(5-(2-(2,5-difluorophenyl)pyrrolidin-1-yl)pyrazolo[1,5-a]pyrimidin-3-yl)-5-methoxy-1H-benzo[d]imidazol-6-yl)methanol] as the molecule, how does the IC50 read?
**A.** Its IC50 is 0.32 nM.

**Q.** CC(O)c1cc2nc(-c3cnn4ccc(N5CCC[C@@H]5c5cc(F)ccc5F)nc34)[nH]c2cn1 (stereo partly drawn) [Compound 70, 1-(2-(5-((R)-2-(2,5-difluorophenyl)pyrrolidin-1-yl)pyrazolo[1,5-a]pyrimidin-3-yl)-3H-imidazo[4,5-c]pyridin-6-yl)ethan-1-ol] was tested. Which IC50 did it give?
**A.** Its IC50 is 0.5 nM.

**Q.** Which IC50 does the source give for Fc1ccc(F)c([C@H]2CCCN2c2ccn3ncc(-c4nc5cc(C(F)(F)F)ncc5[nH]4)c3n2)c1 [Compound 72, (R)-2-(5-(2-(2,5-difluorophenyl)pyrrolidin-1-yl)pyrazolo[1,5-a]pyrimidin-3-yl)-6-(trifluoromethyl)-3H-imidazo[4,5-c]pyridine] here?
**A.** Its IC50 is 1.4 nM.

**Q.** Which IC50 does the source give for Fc1ccc(F)c([C@H]2CCCN2c2ccn3ncc(-c4nc5cnccc5o4)c3n2)c1 [Compound 73, (R)-2-(5-(2-(2,5-difluorophenyl)pyrrolidin-1-yl)pyrazolo[1,5-a]pyrimidin-3-yl)oxazolo[4,5-c]pyridine] here?
**A.** Its IC50 is 0.59 nM.

**Q.** Fc1ccc(F)c([C@H]2CCCN2c2ccn3ncc(-c4nc5ccc(F)cc5[nH]4)c3n2)c1 [Compound 74, (R)-5-(2-(2,5-difluorophenyl)pyrrolidin-1-yl)-3-(6-fluoro-1H-benzo[d]imidazol-2-yl)pyrazolo[1,5-a]pyrimidine] was tested. Which IC50 did it give?
**A.** Its IC50 is 0.96 nM.
